One data set has as its target T1, Adenosine receptor A3 (Homo sapiens, UniProt P0DMS8).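 Further: radioligand binding assay with AB-MECA serving as the labeled ligand; in other assays of this panel Not Active means under 50% inhibition at 10 µM.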
T1 sequence (P0DMS8 whole entry): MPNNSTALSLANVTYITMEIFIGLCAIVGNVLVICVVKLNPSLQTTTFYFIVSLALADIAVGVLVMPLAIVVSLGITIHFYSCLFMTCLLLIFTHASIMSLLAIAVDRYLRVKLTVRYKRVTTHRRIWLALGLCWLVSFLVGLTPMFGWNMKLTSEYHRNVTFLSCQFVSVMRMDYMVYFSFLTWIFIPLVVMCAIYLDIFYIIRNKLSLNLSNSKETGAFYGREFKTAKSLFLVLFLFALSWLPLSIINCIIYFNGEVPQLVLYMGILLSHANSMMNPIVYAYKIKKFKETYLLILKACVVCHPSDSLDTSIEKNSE
In kind it is cell membranes, CHO-K1, Membrane. Particulars: cho-k1.

For data set [1], the target named is 5-hydroxytryptamine receptor 1B (Rattus norvegicus, UniProt P28564). In kind it is cell membranes, Wistar, Cerebral cortex, Membrane. Further: in other assays of this panel Not Active means under 50% inhibition at 10 µM.
Sequence of 5-hydroxytryptamine receptor 1B (P28564 whole entry): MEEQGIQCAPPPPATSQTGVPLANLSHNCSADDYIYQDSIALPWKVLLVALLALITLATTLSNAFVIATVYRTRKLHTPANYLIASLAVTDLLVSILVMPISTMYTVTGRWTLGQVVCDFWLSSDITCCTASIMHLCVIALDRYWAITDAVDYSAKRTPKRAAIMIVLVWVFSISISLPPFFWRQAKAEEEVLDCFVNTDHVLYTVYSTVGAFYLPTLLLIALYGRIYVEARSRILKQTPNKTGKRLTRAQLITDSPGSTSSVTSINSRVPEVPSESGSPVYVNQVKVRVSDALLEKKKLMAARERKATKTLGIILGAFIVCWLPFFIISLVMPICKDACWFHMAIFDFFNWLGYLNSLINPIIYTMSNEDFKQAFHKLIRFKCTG
The target in data set [2] is T2, Angiotensin-converting enzyme (Oryctolagus cuniculus, UniProt P12822).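 Further: enzymatic inhibition of angiotensin-converting enzyme measured with FAPGG as the substrate; in other assays of this panel Not Active means under 50% inhibition at 10 µM.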
T2 sequence (P12822 whole entry): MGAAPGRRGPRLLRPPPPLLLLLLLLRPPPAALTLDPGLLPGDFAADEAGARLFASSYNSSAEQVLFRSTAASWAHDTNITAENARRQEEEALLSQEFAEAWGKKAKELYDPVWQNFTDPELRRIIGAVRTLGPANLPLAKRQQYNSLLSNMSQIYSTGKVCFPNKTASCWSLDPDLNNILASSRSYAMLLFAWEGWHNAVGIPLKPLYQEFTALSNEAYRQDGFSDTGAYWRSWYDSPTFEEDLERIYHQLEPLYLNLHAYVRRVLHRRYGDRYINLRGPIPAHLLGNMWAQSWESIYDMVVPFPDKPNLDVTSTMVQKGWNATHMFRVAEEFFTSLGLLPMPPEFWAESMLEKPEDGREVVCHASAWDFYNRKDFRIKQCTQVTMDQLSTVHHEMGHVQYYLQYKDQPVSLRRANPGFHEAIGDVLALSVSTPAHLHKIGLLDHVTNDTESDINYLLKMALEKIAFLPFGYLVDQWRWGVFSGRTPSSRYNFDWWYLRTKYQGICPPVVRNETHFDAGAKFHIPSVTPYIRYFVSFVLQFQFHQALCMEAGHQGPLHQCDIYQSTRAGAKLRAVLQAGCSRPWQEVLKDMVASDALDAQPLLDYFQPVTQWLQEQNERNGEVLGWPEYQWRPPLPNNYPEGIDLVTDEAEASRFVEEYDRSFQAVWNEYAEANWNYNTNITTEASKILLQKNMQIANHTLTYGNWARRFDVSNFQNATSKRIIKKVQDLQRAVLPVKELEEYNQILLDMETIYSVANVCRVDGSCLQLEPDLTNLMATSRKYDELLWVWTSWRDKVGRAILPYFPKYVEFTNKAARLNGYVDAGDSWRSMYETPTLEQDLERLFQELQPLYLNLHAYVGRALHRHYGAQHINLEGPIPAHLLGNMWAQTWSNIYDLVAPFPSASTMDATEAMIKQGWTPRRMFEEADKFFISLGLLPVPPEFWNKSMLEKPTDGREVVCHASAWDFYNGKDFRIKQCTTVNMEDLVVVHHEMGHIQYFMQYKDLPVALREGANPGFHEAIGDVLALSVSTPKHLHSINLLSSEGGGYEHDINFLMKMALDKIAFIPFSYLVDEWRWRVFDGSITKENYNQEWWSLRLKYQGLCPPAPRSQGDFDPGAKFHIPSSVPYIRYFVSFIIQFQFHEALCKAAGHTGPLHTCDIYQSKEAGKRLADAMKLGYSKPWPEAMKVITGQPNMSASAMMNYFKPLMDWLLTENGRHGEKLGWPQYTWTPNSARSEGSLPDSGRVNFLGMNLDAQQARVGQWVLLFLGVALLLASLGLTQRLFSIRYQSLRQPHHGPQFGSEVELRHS
The data set is classed as tissue-based, Lung.

The target of the next data set is Cytochrome P450 3A4 (Homo sapiens, UniProt P08684). The conditions noted are these: bti-tn-5b1-4. Further: in other assays of this panel Not Active means under 50% inhibition at 10 µM.
Sequence of Cytochrome P450 3A4 (P08684 whole entry): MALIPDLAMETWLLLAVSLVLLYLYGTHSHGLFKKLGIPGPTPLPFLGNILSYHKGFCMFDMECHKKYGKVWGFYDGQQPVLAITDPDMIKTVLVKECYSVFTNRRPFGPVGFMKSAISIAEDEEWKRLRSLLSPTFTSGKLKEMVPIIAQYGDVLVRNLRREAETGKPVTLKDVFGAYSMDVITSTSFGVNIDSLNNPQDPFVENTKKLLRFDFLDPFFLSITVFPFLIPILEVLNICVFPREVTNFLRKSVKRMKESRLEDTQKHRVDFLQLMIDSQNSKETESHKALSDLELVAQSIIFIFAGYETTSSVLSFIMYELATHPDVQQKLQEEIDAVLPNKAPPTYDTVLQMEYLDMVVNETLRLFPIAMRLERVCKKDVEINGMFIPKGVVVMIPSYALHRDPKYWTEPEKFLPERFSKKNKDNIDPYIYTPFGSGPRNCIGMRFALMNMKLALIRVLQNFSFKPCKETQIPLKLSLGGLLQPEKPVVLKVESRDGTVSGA
The target in another data set is T3, Glucocorticoid receptor (Homo sapiens, UniProt P04150). Further: in other assays of this panel Not Active means under 50% inhibition at 10 µM.
T3 sequence (P04150 whole entry): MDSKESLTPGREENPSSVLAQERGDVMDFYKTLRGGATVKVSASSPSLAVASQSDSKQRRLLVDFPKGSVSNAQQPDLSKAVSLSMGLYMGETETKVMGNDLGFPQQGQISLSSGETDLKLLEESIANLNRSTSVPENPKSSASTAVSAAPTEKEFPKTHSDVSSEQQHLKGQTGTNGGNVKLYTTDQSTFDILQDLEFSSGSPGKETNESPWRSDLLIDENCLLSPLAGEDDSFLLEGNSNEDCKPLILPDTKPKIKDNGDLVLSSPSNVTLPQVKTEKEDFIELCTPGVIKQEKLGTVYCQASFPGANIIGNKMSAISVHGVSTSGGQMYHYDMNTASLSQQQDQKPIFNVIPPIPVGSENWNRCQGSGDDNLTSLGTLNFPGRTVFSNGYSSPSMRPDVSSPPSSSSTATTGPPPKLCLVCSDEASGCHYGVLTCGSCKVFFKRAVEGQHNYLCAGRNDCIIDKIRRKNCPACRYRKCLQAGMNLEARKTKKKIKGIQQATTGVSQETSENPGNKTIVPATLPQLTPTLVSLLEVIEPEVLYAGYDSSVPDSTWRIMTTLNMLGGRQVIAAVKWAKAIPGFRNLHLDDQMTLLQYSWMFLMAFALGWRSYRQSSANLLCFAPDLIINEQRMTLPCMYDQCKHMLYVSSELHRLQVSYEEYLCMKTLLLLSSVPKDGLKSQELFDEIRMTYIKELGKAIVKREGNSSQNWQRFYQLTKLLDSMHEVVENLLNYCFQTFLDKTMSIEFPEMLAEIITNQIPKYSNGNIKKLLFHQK
Particulars: hela s3.

Data set [3] in a line: DRUGMATRIX: Phosphodiesterase PDE4 enzyme inhibition (substrate: [3H]cAMP + cAMP). Particulars: u-937; Not Active = under 50% inhibition at 10 µM.
Data set [4] addresses C-C chemokine receptor type 5 (Homo sapiens, UniProt P51681). In kind it is cell membranes, HEK293, Membrane.

The results in this text go back to ChEMBL document CHEMBL1909046, “DrugMatrix in vitro pharmacology data”.

Sequence of C-C chemokine receptor type 5 (P51681 whole entry): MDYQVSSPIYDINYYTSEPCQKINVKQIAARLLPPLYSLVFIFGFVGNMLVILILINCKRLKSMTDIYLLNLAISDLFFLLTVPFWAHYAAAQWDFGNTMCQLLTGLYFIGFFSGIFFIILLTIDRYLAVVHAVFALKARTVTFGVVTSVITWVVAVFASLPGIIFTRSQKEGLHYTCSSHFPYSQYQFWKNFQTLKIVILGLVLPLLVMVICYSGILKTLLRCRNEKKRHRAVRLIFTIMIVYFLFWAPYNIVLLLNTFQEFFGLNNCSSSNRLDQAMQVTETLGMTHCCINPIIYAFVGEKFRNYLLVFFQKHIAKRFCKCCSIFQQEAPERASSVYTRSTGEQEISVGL

The term IC50 denotes the concentration that gives 50% inhibition. A word on the Ki: it is a dissociation constant, usually derived from enzyme kinetics or from competition with a known ligand. As to `CNC(=C[N+](=O)[O-])NCCSCc1ccc(CN(C)C)o1` [RANITIDINE], the IC50 entry (against Adenosine receptor A3; in data set [1]; in data set [2]; on Cytochrome P450 3A4; against Glucocorticoid receptor; in data set [3]) was “Not Active” in each case. In data set [4] (hek293), the IC50 entry was “Not Active”. For the same compound, the Ki result (at Cytochrome P450 3A4; in data set [3]) was “Not Active” each time.

Turning to `CO[C@H]1/C=C/O[C@@]2(C)Oc3c(C)c(O)c4c(c3C2=O)C2=NC3(CCN(CC(C)C)CC3)NC2=C(NC(=O)/C(C)=C\C=C\[C@H](C)[C@H](O)[C@@H](C)[C@@H](O)[C@@H](C)[C@H](OC(C)=O)[C@@H]1C)C4=O` [RIFABUTIN], the half-maximal inhibitory concentration (IC50) entry (against Adenosine receptor A3; in data set [1]; in data set [2]; at Cytochrome P450 3A4; on Glucocorticoid receptor; in data set [3]) was “Not Active” throughout. Besides, the 50% inhibitory concentration (IC50) entry in data set [4] (hek293) is reported as “Not Active”. Also, the inhibition constant (Ki) entry (at Cytochrome P450 3A4; in data set [3]) was “Not Active” in each case.

As to `CC(C)CC(N(C)C)C1(c2ccc(Cl)cc2)CCC1` (stereo not drawn) [SIBUTRAMINE], the 50% inhibitory concentration (IC50) entry (against Adenosine receptor A3; in data set [1]; in data set [2]; at Cytochrome P450 3A4; at Glucocorticoid receptor; in data set [3]) was “Not Active” throughout. Also, in data set [4] (hek293), the IC50 entry is recorded as “Not Active”. For the same compound, the inhibitory constant (Ki) entry (on Cytochrome P450 3A4; in data set [3]) was “Not Active” in each case.

As for `[H]/N=C(/N)N[C@H]1[C@H](O)[C@@H](O)[C@H](O[C@@H]2O[C@@H](C)[C@](O)(C=O)[C@H]2O[C@@H]2O[C@@H](CO)[C@H](O)[C@@H](O)[C@@H]2NC)[C@@H](N/C(N)=N\[H])[C@@H]1O` [STREPTOMYCIN], the IC50 entry (on Adenosine receptor A3; in data set [1]; in data set [2]; at Cytochrome P450 3A4; at Glucocorticoid receptor; in data set [3]) was “Not Active” each time. Further, in data set [4] (hek293), the IC50 result is “Not Active”. The Ki result (at Cytochrome P450 3A4; in data set [3]) was “Not Active” throughout.

For the compound `COc1cc(NS(=O)(=O)c2ccc(N)cc2)nc(OC)n1` [SULFADIMETHOXINE], the IC50 result (against Adenosine receptor A3; in data set [1]; in data set [2]; against Cytochrome P450 3A4; on Glucocorticoid receptor; in data set [3]) was “Not Active” each time. The concentration for half-maximal inhibition (IC50) result in data set [4] (hek293) is “Not Active”. Further, the inhibitory constant (Ki) result (at Cytochrome P450 3A4; in data set [3]) was “Not Active” throughout.

For `Cc1cc(C)nc(NS(=O)(=O)c2ccc(N)cc2)n1` [SULFAMETHAZINE], the IC50 entry (at Adenosine receptor A3; in data set [1]; in data set [2]; against Cytochrome P450 3A4; on Glucocorticoid receptor; in data set [3]) was “Not Active” in each case. The IC50 entry in data set [4] (hek293) is reported as “Not Active”. Further, the inhibition constant Ki entry (on Cytochrome P450 3A4; in data set [3]) was “Not Active” in each case.

For the compound `C[C@]1(Cn2ccnn2)[C@H](C(=O)O)N2C(=O)C[C@H]2S1(=O)=O` [TAZOBACTAM], the concentration for half-maximal inhibition (IC50) entry (against Adenosine receptor A3; in data set [1]; in data set [2]; at Cytochrome P450 3A4; at Glucocorticoid receptor; in data set [3]) was “Not Active” in each case. Moreover, the IC50 entry in data set [4] (hek293) is on record as “Not Active”. Moreover, the Ki result (on Cytochrome P450 3A4; in data set [3]) was “Not Active” in each case.

For the compound `CN1C(C(=O)Nc2ccccn2)=C(O)c2sccc2S1(=O)=O` [TENOXICAM], the IC50 entry (against Adenosine receptor A3; in data set [1]; in data set [2]; at Cytochrome P450 3A4; against Glucocorticoid receptor; in data set [3]) was “Not Active” each time. The concentration for half-maximal inhibition (IC50) entry in data set [4] (hek293) is recorded as “Not Active”. Also, the Ki entry (on Cytochrome P450 3A4; in data set [3]) was “Not Active” throughout.

Consider `CC(C)(C)c1ccc(C(O)CCCN2CCC(C(O)(c3ccccc3)c3ccccc3)CC2)cc1` (stereo not drawn) [TERFENADINE], for which the IC50 entry (against Adenosine receptor A3; in data set [1]; in data set [2]; against Cytochrome P450 3A4; against Glucocorticoid receptor; in data set [3]) was “Not Active” in each case. For the same compound, the half-maximal inhibitory concentration (IC50) in data set [4] (read-out: IC50) was 1100 nM. Further, the figures for the Ki result (on Cytochrome P450 3A4; in data set [3]; in data set [4] (read-out: Ki)) were “Not Active”, “Not Active” and 852 nM, respectively.

As for `O=C1CCC(N2C(=O)c3ccccc3C2=O)C(=O)N1` (stereo not drawn) [THALIDOMIDE], the concentration for half-maximal inhibition (IC50) result (on Adenosine receptor A3; in data set [1]; in data set [2]; on Cytochrome P450 3A4; against Glucocorticoid receptor; in data set [3]) was “Not Active” throughout. The IC50 result in data set [4] (hek293) is reported as “Not Active”. In addition, the inhibition constant (Ki) result (on Cytochrome P450 3A4; in data set [3]) was “Not Active” each time.

Turning to `Cc1cccc(Nc2ccncc2S(=O)(=O)NC(=O)NC(C)C)c1` [TORSEMIDE], the IC50 result (at Adenosine receptor A3; in data set [1]; in data set [2]; on Cytochrome P450 3A4; on Glucocorticoid receptor; in data set [3]) was “Not Active” in each case. Also, the half-maximal inhibitory concentration (IC50) result in data set [4] (hek293) is given as “Not Active”. Further, the Ki entry (on Cytochrome P450 3A4; in data set [3]) was “Not Active” throughout.

Consider `CC(C)C[C@H](NC(=O)[C@@H](O)[C@H](N)Cc1ccccc1)C(=O)O` [UBENIMEX], for which the IC50 result (against Adenosine receptor A3; in data set [1]; in data set [2]; on Cytochrome P450 3A4; at Glucocorticoid receptor; in data set [3]) was “Not Active” each time. Further, in data set [4] (hek293), the IC50 entry was “Not Active”. Also, the Ki entry (at Cytochrome P450 3A4; in data set [3]) was “Not Active” each time.

For the compound `Cc1onc(-c2ccccc2)c1-c1ccc(S(N)(=O)=O)cc1` [VALDECOXIB], the IC50 entry (on Adenosine receptor A3; in data set [1]; in data set [2]; against Cytochrome P450 3A4; on Glucocorticoid receptor; in data set [3]) was “Not Active” in each case. In addition, the IC50 entry in data set [4] (hek293) is reported as “Not Active”. Moreover, the Ki result (on Cytochrome P450 3A4; in data set [3]) was “Not Active” each time.
